Measured values reported in PubChem BioAssay (NCI).
Several values for one entry are separate records, joined by “and”; a condition that tells them apart may be missing. Equal entries are not always repeated.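 Results reflect a 48-hour exposure of cells in 96-well plates to compound at five concentrations. Abbreviation: GI50, concentration required for 50% inhibition of growth. TGI is the concentration that stops growth completely.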

Assays:
Experiment in all cases: growth of human tumour cells (NCI), 48 h
SK-MEL-2 melanoma = system: SK-MEL-2 melanoma
MOLT-4 leukemia = system: MOLT-4 leukemia
HS 578T breast = system: HS 578T breast
A498 renal = system: A498 renal
IGROV1 ovarian = system: IGROV1 ovarian
NCI-H23 lung = system: NCI-H23 lung
U251 CNS = system: U251 CNS
NCI/ADR-RES ovarian = system: NCI/ADR-RES ovarian
M14 melanoma = system: M14 melanoma
NCI-H522 lung = system: NCI-H522 lung

Row | Structure (SMILES) | GI50 (SK-MEL-2 melanoma) [µM] | TGI (SK-MEL-2 melanoma) | GI50 (MOLT-4 leukemia) [µM] | TGI (MOLT-4 leukemia) | GI50 (HS 578T breast) [µM] | TGI (HS 578T breast) | GI50 (A498 renal) [µM] | TGI (A498 renal) [µM] | GI50 (IGROV1 ovarian) | TGI (IGROV1 ovarian) | GI50 (NCI-H23 lung) [µM] | TGI (NCI-H23 lung) | GI50 (U251 CNS) [µM] | TGI (U251 CNS) | GI50 (NCI/ADR-RES ovarian) [µM] | TGI (NCI/ADR-RES ovarian) | GI50 (M14 melanoma) [µM] | TGI (M14 melanoma) [µM] | GI50 (NCI-H522 lung) [µM] | TGI (NCI-H522 lung) [µM]
1 | NC(=NCCCCCCN=C(N)/N=C(\N)Nc1ccc(Cl)cc1)/N=C(\N)Nc1ccc(Cl)cc1 | 1.31 | 3.18 µM | 1.09 | 2.84 µM | 1.43 | 4.73 µM | 1.6 | 6.22 | 1.28 µM | 3.16 µM | 1.16 | 3.59 µM | 1.07 | 2.77 µM | 4.09 | 50 µM | 1.71 | 6 |  | 
2 | O=C1C(Cl)=C(Nc2ccc(S(=O)(=O)c3ccc(NC4=C(Cl)C(=O)c5ccccc5C4=O)cc3)cc2)C(=O)c2ccccc21 |  |  | 1.87 | 5.86 µM | 1.82 | 5.85 µM | 3.72 | 16.2 |  |  | 1.81 | 3.63 µM |  |  | 3.68 | 35.2 µM | 1.82 | 3.26 |  | 
3 | CC(C)=C[C@@H]1C[C@H](C)[C@H]2CC[C@H](C)c3c(O)c(OC4OC(C)C(O)C(O)C4O)c(C)c1c32 (stereo partly drawn) | 19.8 | 35.5 µM | 8.35 | 23.9 µM | 11.6 | 27.5 µM | 12.7 | 26.7 | 13.7 µM | 26.8 µM | 2.21 | 20 µM | 14.7 | 27.8 µM | 0.648 | 16.8 µM | 11.5 | 24.9 | 16.1 | 29.8
4 | O=C(/C=C/c1ccc(O)c(O)c1)N1CCN(c2ccc(Cl)cc2)CC1 | 12.1 | 31.9 µM | 3.47 | > 100 µM | 8.04 | 49.4 µM | 2.5 | 16.4 | 4.5 µM | 80.5 µM | 5.21 | 32 µM | 5 | 23.3 µM | 4.61 | 32.9 µM | 8.98 | 47.1 | 1.83 | 12.6
5 | CNC(=O)CCN1CCN(CC/C=C2\c3ccccc3Sc3ccc(Cl)cc32)CC1 | 14.1 | 32.4 µM | 6.56 | > 34.1 µM | 3.67 | 20.5 µM | 6.89 | 19.9 | 15.1 µM | 37.3 µM | 14.4 | 32.5 µM | 7.22 | 20.7 µM | 7.08 | 16.5 µM | 2.1 | 4.4 | 20 | 43.8
6 | Cc1cc(C)c2nc3c(c(C(O)C4CCCCN4)c2c1)CC/C3=C\c1ccc(Cl)cc1 (stereo not drawn) |  | > 100 µM |  | > 100 µM |  | > 100 µM |  | > 100 |  | > 100 µM |  | > 100 µM |  | > 100 µM |  | > 100 µM |  | > 100 |  | > 100
7 | CCCN1C(=O)/C(=C/c2ccc(SC(F)(F)F)cc2)SC1=Nc1ccc(OC)cc1 | 36.5 | > 50 µM | > 50 | > 50 µM | 14 | 33.4 µM | 11 | 21.9 | 29.6 µM | > 50 µM | 12.6 | 30.2 µM | 6.51 | 16.9 µM | 11 | 42.4 µM | 18.6 | > 50 |  | 
8 | COc1cc(-c2nc(-c3ccccc3)c(-c3ccccc3)[nH]2)cc(OC)c1O | 19.8 | 35.5 µM | 17.1 | 64.9 µM | 19.4 | 52.9 µM | 0.0762 | 24.7 | 26.9 µM | 61.2 µM | 19 | 38.7 µM | 16.3 | 33.2 µM | 24.6 | 73.8 µM |  |  | 17.6 | 33.8
9 | CN(C)CCCN1c2ccccc2Sc2ccc(C(F)(F)F)cc21 | 1.79 | 3.69 µM and 30.5 µM | 1.86 | 4.19 µM and 39.2 µM | 1.63 | 3.7 µM and 28.5 µM | 1.05 |  | 1.67 µM | 3.31 µM and 29.3 µM and 30.1 µM | 1.72 | 4.12 µM and 31.1 µM and 34.4 µM | 1.69 | 3.14 µM and 29.6 µM and 29.4 µM | 1.66 | 3.42 µM and 31.1 µM |  |  | 1.39 | 
10 | COC(=O)c1c(C)nc(C)c2c1C(=O)C(Br)=C(NCc1ccccc1)C2=O | 2.52 | 6.63 µM | 3.09 | 10.8 µM | 10.8 | > 100 µM | 4.48 | 17.3 | 2.05 µM | 5.45 µM | 1.89 | 5.19 µM | 2.74 | 8.34 µM | 2.83 | 8.16 µM | 2.06 | 4.81 | 2.25 | 6.09
11 | O=[N+]([O-])c1ccccc1N=Nc1c(O)[nH]c2c(Cl)cccc12 |  | > 100 µM |  | > 100 µM |  | 43.4 µM |  | > 68.8 |  | > 47.8 µM |  | > 71.3 µM |  | > 51.5 µM |  | > 60.5 µM |  | > 100 |  | 26.1
12 | COc1cc(C(=O)c2cnc(-c3c[nH]c4cccc(C)c34)[nH]2)cc(OC)c1OC | 0.00745 | 30.7 µM | 0.0378 | > 100 µM | 0.00655 | > 100 µM | 0.00176 | 0.00774 | 0.00842 µM and 0.0168 µM | > 100 µM | 0.0102 | > 100 µM | 0.00639 | 49.1 µM | 0.0123 |  |  |  |  | 0.0224
13 | Cn1cc(-c2cc(-c3cn(C)c4ccccc34)[nH]n2)c2ccccc21 | 57.5 | > 100 µM | 4.75 | 20.8 µM | 18.5 | > 100 µM | 19.6 | 90.3 | 8.9 µM | 74.1 µM | 22 | > 100 µM | 12.9 | 46.9 µM | 27.6 | > 100 µM | > 100 | > 100 | 22.1 | > 100
14 | S=c1ssnc1-c1cc2ccccc2o1 | 13.8 | 28.3 µM | 3.39 | > 100 µM | 18.5 | 80.7 µM | 20 | 38.8 | 4.09 µM | 29 µM | 24.4 | 75.5 µM | 15.1 | 28.4 µM | 25.7 | 90.7 µM | 16.5 | 60.7 | 20.7 | 45.9
